Experimental data as given in US20180044640A1, “CONTRACTILE CELLULAR CONSTRUCT FOR CELL CULTURE” (Agency for Science, Technology and Research, priority 2015, published 2018).
Where two headings read alike, the source gives them in different places. One block for each compound: values may come before it.

How the values were obtained:
[1] = test system: 3D cardiac tissues (hiPSC-derived cardiomyocytes)
Experimental: To generate 3D cardiac tissues, 12-day differentiated cardiac cells were detached from culture wells using accutase (Stem Cell Technologies), suspended in RPMI-B27medium containing Y-27632 (5 uM) to reach a final concentration of 1.5×10^8 cells/mL. Casting molds were prepared by placing the tissue holder and PDMS molds in 96-well culture plates. For each tissue, 12 μL cell suspension was loaded into the cell loading channel. For florescence-labeled cardiac tissue, 12 μL cell suspension was mixed briefly with ˜20 FluoSpheres polystyrene microspheres (diameter 15 μm, Life Technologies) and pipetted into cell loading channels. The 96-well plates were placed in a 37° C., 5% CO2 culture incubator for 2 hours. 0.20 mL of cell culture medium was then added per well for continued culture. After one day of culture, media was changed to RPMI-B27 medium without Y-27632 and changed every day.
Cardiac tissue contractility was assessed based on the recorded video using IMARIS software. The cardiac tissues were labeled with fluorescence beads, as described above. The video was exported as image stacks for IMARIS tracking analysis. The software can identify the contraction and relaxation events based on the relative positions of the florescence beads during the entire tissue beating sequence. These positions were recorded, and the relevant contractility parameters were calculated from the temporal change of these positions.
Toxicity studies were performed using a Zeiss fluorescence microscope, within a closed environment chamber maintaining constant 37° C. temperature and 5% CO2 humidified air for long time lapse imaging of live cells. An experiment design program in Zen software was used to create an automatic measurement program. For chronic drug response, videos were recorded for each well at every 1 h interval.
The videos were recorded at cumulative concentrations 1 hr before measurement, and processed using IMARIS software.

Cardiac spheroids = test: Toxicity assay based on ATP activity (CellTiter-Glo 3D cell viability assay); parameters: species or system human; conditions: 1 hr incubation, normalized to drug-free controls
Experimental: Cardiac spheroids were incubated with various concentrations of compounds dissolved in culture medium for 1 hr, and cell viability was subsequently measured by CellTiter-Glo® 3D cell viability assay (Promega), which determines the number of viable cells in culture based on quantitation of the ATP present. Data is normalized to drug-free controls. Data from the same treatment on 3 occasions were averaged to represent the mean ATP measurement.

[2] = test system: iPSC-derived cardiomyocytes monolayer; format: cell-based; conditions: human; for Time at which significant reduced beating speed was observed / Time of total arrest of beating: 2 days
Experimental: The 12-day differentiated cardiomyocytes were detached using accutase and suspended in RPMI-B27 medium containing Y-27632 (5 uM). The cell suspension was mixed with FluoSpheres polystyrene microspheres, and loaded into matrigel or fibronectin coated 384-well microplate (Greiner) or 96-well tissue culture plates at 0.25˜0.30 *10^6cells/50˜100 microspheres/cm^2.
The videos were recorded for each well at every 1 hr interval and processed using IMARIS software.

Structure (SMILES): CC1(C)S[C@@H]2[C@H](NC(=O)[C@H](N)c3ccccc3)C(=O)N2[C@H]1C(=O)O [ampicillin, Ampicillin]
- Concentration up to which negligible beating rate changes were observed ([1]; human, 1 h): up to 1 mM
- Concentration up to which negligible / no significant toxicity was detected (ATP-based cell viability) (Cardiac spheroids): ≤ 10000 µM

Structure (SMILES): CC[C@H]1OC(=O)[C@H](C)[C@@H](O[C@H]2C[C@@](C)(OC)[C@@H](O)[C@H](C)O2)[C@H](C)[C@@H](O[C@@H]2O[C@H](C)C[C@H](N(C)C)[C@H]2O)[C@](C)(O)C[C@@H](C)C(=O)[C@H](C)[C@@H](O)[C@]1(C)O [erythromycin]
- Concentration at which complete arrest of contraction was observed ([1]; human, 1 h): 10 µM
- Concentration up to which negligible / no significant toxicity was detected (ATP-based cell viability) (Cardiac spheroids): up to 500 μM

Structure (SMILES): N[C@@H]1[C@H]2CN(c3nc4c(cc3F)c(=O)c(C(=O)O)cn4-c3ccc(F)cc3F)C[C@@H]12 [trovafloxacin]
- Concentration at which complete arrest of contraction was observed ([1]; human, 1 h): 100 µM

Structure (SMILES): CN(C)C(=N)N=C(N)N [metformin]
- Change in beating rates [1]: less pronounced changes in beating rates

Now from value to compound:

- Concentration at which complete arrest of contraction was observed ([1]; human, 1 h): 10 µM
Structure (SMILES): C=C[C@H]1C[N@@]2CC[C@H]1C[C@@H]2[C@@H](O)c1ccnc2ccc(OC)cc12 [quinidine]

- Concentration at which complete arrest of contraction was observed ([1]; human, 1 h): 50 µM
Structure (SMILES): Cc1c(C)c2c(c(C)c1O)CCC(C)(COc1ccc(CC3SC(=O)NC3=O)cc1)O2 (stereo not shown) [troglitazone]

- Concentration at which complete arrest of contraction was observed [1]: 200 µM
Structure (SMILES): CCS(=O)(=O)N(C)[C@H]1c2cc(C#N)ccc2OC(C)(C)[C@@H]1O (racemic) [chromanol 293B]

- Concentration at which complete arrest of beating was observed ([2]; 1 h): 100 µM
- Concentration showing pronounced changes in contraction speed ([2]; 1 h): 10 µM
- Time at which significant reduced beating speed was observed ([2]; 5 μM): 28 h
- Time of total arrest of beating ([2]; 5 μM): 44 h
- Time at which significant reduced beating speed was observed ([2]; 10 μM): 4 h
- Time of total arrest of beating ([2]; 10 μM): 30 h
Structure (SMILES): N=C(N)c1ccc(OCCCCCOc2ccc(C(=N)N)cc2)cc1 [pentamidine, Pentamidine]

- Concentration at which complete arrest of contraction was observed ([1]; human, 1 h): 50 µM
Structure (SMILES): CN(CCOc1ccc(CC2SC(=O)NC2=O)cc1)c1ccccn1 (stereo not shown) [rosiglitazone, Rosiglitazone]
